# Data taken from patent US12662458B2, “Solid forms of a compound” (Denali Therapeutics Inc., priority 2020, dated 2026).
# Assays:
# [1] = Biorelevant media solubility of Forms A and C; assay type: physicochemical; conditions: for Solubility / Final XRPD: 37° C.
# Description: Biorelevant media solubility of Forms A and C were studied in water, SGF, FaSSIF, and FeSSIF at 37° C. 10-20 mg of Form A or C was weighed into 2-3 mL glass vials and media was added to achieve a solids loading of ˜5 mg/mL. Each slurry was magnetically agitated at 750-1000 rpm at 37° C., filtered via centrifugation, and the supernatant was analyzed by HPLC to determine solubility. In all cases, there was no polymorphic form change observed by XRPD analysis of the filtered solids.
# [2] = Solid form stability on storage; assay type: physicochemical; conditions: for solid form stability (form change, weight gain, purity changes): 60° C., up to 4 weeks
# Description: To evaluate the solid form stability, Forms A and C were stored under 25° C./60% RH (open), 40° C./75% RH (open), and 60° C. for up to 4 weeks. Samples were analyzed by XRPD, TGA, DSC, and HPLC purity.
# [3] = Dynamic vapor sorption (hygroscopicity); assay type: physicochemical; conditions: DVS
# Description: DVS analysis was carried out using a Surface Measurement System DVS Intrinsic analyzer. The instrument was calibrated with standard weights. Approximately 15-20 mg of sample was loaded into a pan for analysis. The sample was analyzed at 25° C. in 10% relative humidity (RH) steps from 0 to 95% RH (adsorption cycle) and from 95 to 0% RH (desorption cycle). The movement from one step to the next occurred either after satisfying the equilibrium criterion of 0.002% weight change (dm/dt) or, if the equilibrium criterion was not met, after ten hours.
# [4] = Plasma PK in monkeys, powder in capsule; assay type: in vivo; conditions: single oral 15 mg/kg; for AUC(0-t): read-out: AUC0-24 h
# Description: Non-naïve male cynomolgus monkeys were used in this study with at least a 7-day washout period prior to dosing Animals were administered micronized Form A, unmicronized Form A, or micronized Form C powder in capsule by single oral administration at 15 mg/kg. The capsules were prepared according to the animals' body weights on dosing day. Blood samples were collected at 0.25, 0.5, 1, 2, 4, 8, 24, 48, and 72 hours post-dose.
# [5] = Slurry interconversion of Form A and Form C; assay type: physicochemical
# Description: Form A slurry converts to Form C in the presence of Form C seed. For example, Form A (10 mg) and Form C (10 mg) were stirred in saturated IPA/water and MeCN/water at temperatures ranging from 5-60° C. […] Form A could only be prepared in a location uncontaminated with Form C (e.g., locations where From C had not previously existed).
# [6] = Plasma PK in rats, nanosuspension; assay type: in vivo; conditions: nanosuspension in deionized water, single oral 25 mg/kg
# Description: Wistar Han rats were administered a nanosuspension of Form A or Form C as a single oral administration at 25 mg/kg. The nanosuspensions were prepared by suspending nano-milled Form A or Form C in deionized water (2.5 mg/mL) to obtain opaque homogenous suspensions. Blood samples were collected at 0.25, 0.5, 1, 2, 4, 8, 24, 48, and 72 hours post-dose. Concentrations of Compound I in plasma samples were determined by LC/MS/MS.
# [7] = Plasma PK in monkeys, nanosuspension; assay type: in vivo; conditions: nanosuspension in deionized water, single oral 25 mg/kg
# Description: Non-naïve male cynomolgus monkeys were used in this study with at least a 7-day washout period prior to dosing Animals were administered a nanosuspension of Form C as a single oral administration at 25 mg/kg. The nanosuspension was prepared by suspending nano-milled Form C in deionized water (5 mg/mL) to obtain an opaque homogenous suspension. Blood samples were collected at 0.25, 0.5, 1, 2, 4, 8, 24, 48, and 72 hours post-dose. Concentrations of Compound I in plasma samples were determined by LC/MS/MS.
# A separate study was performed for a nanosuspension of Form A.
# [8] = Storage stability of amorphous Form D; assay type: physicochemical
# Description: Form A was kept in an oven at 150° C. until all solids melted. The melt was kept at 150° C. for 5 minutes and was then taken out of the oven and cooled to room temperature.
# [9] = filtered solids after slurry in FaSSIF
# [10] = filtered solids after slurry in FeSSIF
# [11] = filtered solids after slurry in SGF
# [12] = filtered solids after slurry in Water
# [13] = 25° C./60% RH (open), 40° C./75% RH (open)
# [14] = male, cynomolgus monkey, po, 15 mg/kg, micronized (d90 5)
# [15] = male, cynomolgus monkey, po, 15 mg/kg, unmicronized (d90 43)
# [16] = micronized (d90 5), cynomolgus monkeys
smiles,measurement,setting,value
"O=C(COc1ccc(Cl)cc1)NC12CC(c3nnc([C@H]4C[C@@H](OC(F)(F)F)C4)o3)(C1)C2 (single isomer, unassigned) [Form A, 2-(4-chlorophenoxy)-N-[3-[5-[cis-3-(trifluoromethoxy)cyclobutyl]-1,3,4-oxadiazol-2-yl]-1-bicyclo[1.1.1]pentanyl]acetamide]",Solubility,[1]; FaSSIF,25 µg/mL
same,Solubility,[1]; FeSSIF,44 µg/mL
same,Solubility,[1]; SGF,46 µg/mL
same,Solubility,[1]; Water,9.7 µg/mL
same,Final XRPD,[1]; [9],Form A
same,Final XRPD,[1]; [10],Form A
same,Final XRPD,[1]; [11],Form A
same,Final XRPD,[1]; [12],Form A
same,aqueous solubility,[1]; listed as Compound I Form A,about 9.7 microgram/mL
same,DSC endotherm,"[2]; 25° C./60% RH (open), 1 week",125.6 °C
same,HPLC purity,"[2]; 25° C./60% RH (open), 1 week",99.3%
same,"TGA loss (%, to 150° C.)","[2]; 25° C./60% RH (open), 1 week",1.8%
same,XRPD,"[2]; 25° C./60% RH (open), 1 week",Form A
same,DSC endotherm,"[2]; 25° C./60% RH (open), 4 week",125.3 °C
same,HPLC purity,"[2]; 25° C./60% RH (open), 4 week",98.8%
same,"TGA loss (%, to 150° C.)","[2]; 25° C./60% RH (open), 4 week",0.6%
same,XRPD,"[2]; 25° C./60% RH (open), 4 week",Form A
same,"solid form stability (form change, weight gain, purity changes)",[2]; [13],"No form change, weight gain, or purity changes"
same,DSC endotherm,"[2]; 40° C./75% RH (open), 1 week",125.4 °C
same,HPLC purity,"[2]; 40° C./75% RH (open), 1 week",99.3%
same,"TGA loss (%, to 150° C.)","[2]; 40° C./75% RH (open), 1 week",0.9%
same,XRPD,"[2]; 40° C./75% RH (open), 1 week",Form A
same,DSC endotherm,"[2]; 40° C./75% RH (open), 4 week",125.1 °C
same,HPLC purity,"[2]; 40° C./75% RH (open), 4 week",98.7%
same,"TGA loss (%, to 150° C.)","[2]; 40° C./75% RH (open), 4 week",0.7%
same,XRPD,"[2]; 40° C./75% RH (open), 4 week",Form A
same,DSC endotherm,"[2]; 60° C. (open), 1 week",125.2 °C
same,HPLC purity,"[2]; 60° C. (open), 1 week",99.3%
same,"TGA loss (%, to 150° C.)","[2]; 60° C. (open), 1 week",0.7%
same,XRPD,"[2]; 60° C. (open), 1 week",Form A
same,DSC endotherm,"[2]; 60° C. (open), 4 week",125.1 °C
same,HPLC purity,"[2]; 60° C. (open), 4 week",98.8%
same,"TGA loss (%, to 150° C.)","[2]; 60° C. (open), 4 week",0.6%
same,XRPD,"[2]; 60° C. (open), 4 week",Form A
same,DSC endotherm,[2]; Initial,125.0 °C
same,HPLC purity,[2]; Initial,98.5%
same,"TGA loss (%, to 150° C.)",[2]; Initial,0.4%
same,XRPD,[2]; Initial,Form A
same,Hygroscopicity,[3],Non-hygroscopic
same,weight change / form change after exposure to humidity,[3],no form change
same,Cmax,[4]; [14],9.8 ± 4.1 µM
same,AUC(0-t),[4]; [14],154 ± 44 µM·h
same,Tmax,"[4]; male, cynomolgus monkey, po, 15 mg/kg, micronized (d90 5), read-out: Tmax",8 h
same,Cmax,[4]; [15],5.6 ± 0.4 µM
same,AUC(0-t),[4]; [15],92 ± 24 µM·h
same,Tmax,"[4]; male, cynomolgus monkey, po, 15 mg/kg, unmicronized (d90 43), read-out: Tmax",4 h
same,Results (solid form after slurry),"[5]; ACN/water (1:2), 5 ° C., 8 day",Form C
same,Results (solid form after slurry),"[5]; ACN/water (1:2), 22 ° C., 8 day",Form C
same,Results (solid form after slurry),"[5]; ACN/water (1:2), 60 ° C., 6 day",Form C
same,solid form after slurry by XRPD and DSC,"[5]; Form A (10 mg) and Form C (10 mg) in saturated IPA/water and MeCN/water, 5-60° C., 6-8 days",only Form C was present
same,Results (solid form after slurry),"[5]; IPA/water (1:1), 5 ° C., 8 day",Form C
same,Results (solid form after slurry),"[5]; IPA/water (1:1), 22 ° C., 8 day",Form C
same,Results (solid form after slurry),"[5]; IPA/water (1:1), 60 ° C., 6 day",Form C
same,Cmax,"[6]; Wistar Han, rat, po, 25 mg/kg",105 ± 8 µM
same,AUC(0-t),"[6]; Wistar Han, rat, po, 25 mg/kg, read-out: AUC0-48 h",1700 ± 271 µM·h
same,Tmax,"[6]; rat, Wistar Han rats, read-out: Tmax",8 h
same,Cmax,"[7]; male, cynomolgus monkey, po, 25 mg/kg",25.4 ± 4.1 µM
same,AUC(0-t),"[7]; male, cynomolgus monkey, po, 25 mg/kg, read-out: AUC0-24 h",451 ± 84 µM·h
same,Tmax,"[7]; male, cynomolgus monkey, po, 25 mg/kg, read-out: Tmax",4 h
"O=C(COc1ccc(Cl)cc1)NC12CC(c3nnc([C@H]4C[C@@H](OC(F)(F)F)C4)o3)(C1)C2 (single isomer, unassigned) [Form C, 2-(4-chlorophenoxy)-N-[3-[5-[cis-3-(trifluoromethoxy)cyclobutyl]-1,3,4-oxadiazol-2-yl]-1-bicyclo[1.1.1]pentanyl]acetamide]",Solubility,[1]; FaSSIF,9.65 µg/mL
same,Solubility,[1]; FeSSIF,16.14 µg/mL
same,Solubility,[1]; SGF,0.56 µg/mL
same,Solubility,[1]; Water,1.02 µg/mL
same,Final XRPD,[1]; [9],Form C
same,Final XRPD,[1]; [10],Form C
same,Final XRPD,[1]; [11],Form C
same,Final XRPD,[1]; [12],Form C
same,aqueous solubility,[1]; listed as Compound I Form C,about 1.02 micrograms/mL
same,DSC endotherm,"[2]; 25° C./60% RH (open), 2 week",133.7 °C
same,HPLC purity,"[2]; 25° C./60% RH (open), 2 week",99.7%
same,"TGA loss (%, to 150° C.)","[2]; 25° C./60% RH (open), 2 week",0.4%
same,XRPD,"[2]; 25° C./60% RH (open), 2 week",Form C
same,DSC endotherm,"[2]; 25° C./60% RH (open), 4 week",133.3 °C
same,HPLC purity,"[2]; 25° C./60% RH (open), 4 week",99.7%
same,"TGA loss (%, to 150° C.)","[2]; 25° C./60% RH (open), 4 week",0.3%
same,XRPD,"[2]; 25° C./60% RH (open), 4 week",Form C
same,"solid form stability (form change, weight gain, purity changes)",[2]; [13],"No form change, weight gain, or purity changes"
same,DSC endotherm,"[2]; 40° C./75% RH (open), 2 week",133.6 °C
same,HPLC purity,"[2]; 40° C./75% RH (open), 2 week",99.7%
same,"TGA loss (%, to 150° C.)","[2]; 40° C./75% RH (open), 2 week",0.2%
same,XRPD,"[2]; 40° C./75% RH (open), 2 week",Form C
same,DSC endotherm,"[2]; 40° C./75% RH (open), 4 week",133.3 °C
same,HPLC purity,"[2]; 40° C./75% RH (open), 4 week",99.8%
same,"TGA loss (%, to 150° C.)","[2]; 40° C./75% RH (open), 4 week",0.2%
same,XRPD,"[2]; 40° C./75% RH (open), 4 week",Form C
same,DSC endotherm,"[2]; 60° C. (closed), 2 week",133.6 °C
same,HPLC purity,"[2]; 60° C. (closed), 2 week",99.8%
same,"TGA loss (%, to 150° C.)","[2]; 60° C. (closed), 2 week",0.3%
same,XRPD,"[2]; 60° C. (closed), 2 week",Form C
same,DSC endotherm,"[2]; 60° C. (closed), 4 week",133.0 °C
same,HPLC purity,"[2]; 60° C. (closed), 4 week",99.8%
same,"TGA loss (%, to 150° C.)","[2]; 60° C. (closed), 4 week",0.2%
same,XRPD,"[2]; 60° C. (closed), 4 week",Form C
same,DSC endotherm,[2]; Initial,133.1 °C
same,HPLC purity,[2]; Initial,99.8%
same,"TGA loss (%, to 150° C.)",[2]; Initial,0.1%
same,XRPD,[2]; Initial,Form C
same,Hygroscopicity,[3],Non-hygroscopic
same,weight change / form change after exposure to humidity,[3],no weight change and no polymorphic change
same,AUC0-24 h,[4]; [16],117 ± 39 μM-hr
same,Cmax,[4]; [16],7.6 ± 3.4 µM
same,Tmax,[4]; [16],4 h
same,Tmax,[6]; Wistar Han rats,8 h
same,AUC0-48 h,"[6]; Wistar Han rats, 25 mg/kg",1658 ± 211 μM-hr
same,Cmax,"[6]; Wistar Han rats, 25 mg/kg",101 ± 10 µM
same,AUC0-24 h,[7]; cynomolgus monkeys,367 ± 99 μM-hr
same,Cmax,[7]; cynomolgus monkeys,21.7 ± 4.2 µM
same,Tmax,[7]; cynomolgus monkeys,8 h
"O=C(COc1ccc(Cl)cc1)NC12CC(c3nnc([C@H]4C[C@@H](OC(F)(F)F)C4)o3)(C1)C2 [Form D, 2-(4-chlorophenoxy)-N-[3-[5-[cis-3-(trifluoromethoxy)cyclobutyl]-1,3,4-oxadiazol-2-yl]-1-bicyclo[1.1.1]pentanyl]acetamide]",storage stability of form,[8]; standing at room temperature or higher (25° C.-50° C.) for several days,convert to Form C
same,storage stability of form,[8]; stored at 5° C.,stable for 7 days
same,storage stability of form,"[8]; stored at RT-60° C., 7 days",converted to Form C
